Test system: immune cells from the peritoneal cavity
Assay: Endometriosis mouse model, immune cell proportions of the peritoneal cavity (flow cytometry)
Type: in vivo
Conditions: 50 mg/kg/day, 5 times a week, 6 weeks
Protocol: Experimental design. Balb/C female mice (10 weeks old) were habituated for 3 days to take a jelly containing (group EDT+2,4D) or not (groups No EDT and EDT+Vehicle) the compound. Surgical implantation of endometrial tissue from syngenic female in peritoneum, was performed at day 0 for groups EDT+Vehicle and EDT+2,4D. […] The vehicle or treatment was then given 5 times a week (50 mg/kg/day) during 6 weeks. Mice were then sacrificed and the peritoneal inflammation was assessed. All the details of the protocol are depicted in FIG. 27. Cytokine measurement in cell-free peritoneal lavage. After mice were euthanized, 5 mL of PBS was injected into the peritoneal cavity and the diluted peritoneal fluid containing the cells was then retrieved. The cells were pelleted by centrifugation at 500×g 4° C. and the supernatant (cell-free peritoneal fluid) was frozen at −80° C. for subsequent cytokine concentration measurement by ELISA. Cytokine concentration was assessed by ELISA kit in the peritoneal fluid (ThermoFisher, Mouse IL-1β, IL6 and TNFalpha Uncoated ELISA). […] The optical density was read with the Clariostar Plus Microplate Reader (BMG LABTECH), through the Clario software. Concentrations were calculated from a standard curve according to the manufacturer's protocol. Phenotypic study of immune cells from the peritoneal cavity assessed by flow cytometry. The pelleted peritoneal cells were resuspended in PBS-2% FBS and counted. One million cells were stained with the following fluorophore-conjugated antibodies purchased from BioLegend: CD45 BV510, CD11b APC-Cy7, CD11c PE, F4/80 BV711, CD80 PE Cy5, CD206 AF647, Ly-6C, PE-Cy7, CCR2 BV786 et CXCR4 BV421, CD45R/B220 PE Texas-Red, CD3E FITC, NK1.1 BV605 and CD69 PerCP-Cy5.5, Zombie-UV. Cells were incubated 20 min in the dark at 4° C., washed with PBS-2% FBS, and were fixed with paraformaldehyde 4% in 5 mL round-bottom polystyrene tubes (Falcon™ 352054). Compensation was adjusted with Ultracomp beads (ThermoFisher). […] All data were collected on LSR Fortessa flow cytometer (BD Bioscience, USA) and analyzed with FlowJo software. […]

## COc1cc(O)c(OC)c(O)c1C(=O)/C=C/c1ccccc1 [2,4-D, 2′,4′-dihydroxy-3′,6′-dimethoxychalcone]
  global T cell proportion: did not affect
  proportion of NK cells amongst the peritoneal cells: significantly reduced
  proportion of macrophages: not changed

Source: US20240335395A1, “COMPOSITIONS AND METHODS FOR PREVENTING AND/OR TREATING DISEASE ASSOCIATED WITH IL-23 EXPRESSION” (ALLSPIM, priority 2021, published 2024)
